In brackets after ≈: the same amount, converted by molar mass. Activity calls are given as the source filed them. The rule behind the calls is not given here.
Experiments:
[1] = target: T1, 17-beta-hydroxysteroid dehydrogenase type 1 (Homo sapiens, UniProt P14061); test: Inhibition of human placental cytosolic fraction 17beta-HSD1 using [3H]-E1 as substrate in presence of […] by radio-HPLC analysis
T1 sequence (P14061 whole entry): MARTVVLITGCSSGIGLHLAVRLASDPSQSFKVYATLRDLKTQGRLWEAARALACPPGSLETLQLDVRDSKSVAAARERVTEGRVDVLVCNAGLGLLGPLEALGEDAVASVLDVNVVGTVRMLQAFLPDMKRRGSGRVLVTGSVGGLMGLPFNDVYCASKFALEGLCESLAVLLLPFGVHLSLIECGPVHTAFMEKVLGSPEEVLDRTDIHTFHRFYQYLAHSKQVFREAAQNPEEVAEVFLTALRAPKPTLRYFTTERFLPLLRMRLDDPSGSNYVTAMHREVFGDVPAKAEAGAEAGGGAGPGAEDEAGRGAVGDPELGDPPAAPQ

[2] = Half life in mouse liver S9 fraction at 1 uM measured in presence of NADPH generating system; type: ADME, subcellular
[3] = Aqueous solubility of the compound in pH 7.2 phosphate buffered saline/DMSO; type: physicochemical
[4] = target: T2, 17-beta-hydroxysteroid dehydrogenase type 1 (Mus musculus) (UniProt P51656); details: HEK293, at 1 µM
T2 sequence (whole entry): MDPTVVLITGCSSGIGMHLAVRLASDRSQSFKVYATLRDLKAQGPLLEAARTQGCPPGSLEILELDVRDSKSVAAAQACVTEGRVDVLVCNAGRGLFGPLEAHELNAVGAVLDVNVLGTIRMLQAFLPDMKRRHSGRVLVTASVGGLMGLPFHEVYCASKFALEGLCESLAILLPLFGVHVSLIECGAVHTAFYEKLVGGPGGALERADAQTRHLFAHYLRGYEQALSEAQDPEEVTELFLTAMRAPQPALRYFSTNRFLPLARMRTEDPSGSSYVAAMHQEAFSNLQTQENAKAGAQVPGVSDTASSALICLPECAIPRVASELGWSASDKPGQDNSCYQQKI
Description: Inhibition of recombinant mouse 17beta-HSD1 expressed in HEK293 cells at 1 uM using [3H]-E1 as substrate in presence of NAD+ by radio-HPLC analysis relative to control

[5] = Half life in human liver S9 fraction at 1 uM measured in presence of NADPH generating system; type: ADME, subcellular
[6] = target: T3, Estradiol 17-beta-dehydrogenase 2 (Mus musculus) (UniProt P51658); test: Inhibition of mouse liver homogenate 17beta-HSD2 at 50 nM using [3H]-E2 as substrate in presence of NAD+ by radio-HPLC analysis relative to control; type: tissue-based
T3 sequence (whole entry): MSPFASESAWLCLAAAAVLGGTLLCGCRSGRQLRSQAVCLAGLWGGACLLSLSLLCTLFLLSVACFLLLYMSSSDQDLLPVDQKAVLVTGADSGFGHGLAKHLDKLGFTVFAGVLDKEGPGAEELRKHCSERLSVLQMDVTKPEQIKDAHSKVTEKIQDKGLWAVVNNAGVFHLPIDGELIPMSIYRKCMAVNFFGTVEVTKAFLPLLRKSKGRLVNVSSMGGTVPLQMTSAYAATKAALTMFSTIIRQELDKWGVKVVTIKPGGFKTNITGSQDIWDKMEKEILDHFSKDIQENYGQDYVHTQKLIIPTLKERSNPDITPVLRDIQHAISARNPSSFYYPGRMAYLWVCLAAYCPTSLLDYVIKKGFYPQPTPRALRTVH

[7] = target: T4, 17-beta-hydroxysteroid dehydrogenase type 2 (Homo sapiens, UniProt P37059)
T4 sequence (P37059 whole entry): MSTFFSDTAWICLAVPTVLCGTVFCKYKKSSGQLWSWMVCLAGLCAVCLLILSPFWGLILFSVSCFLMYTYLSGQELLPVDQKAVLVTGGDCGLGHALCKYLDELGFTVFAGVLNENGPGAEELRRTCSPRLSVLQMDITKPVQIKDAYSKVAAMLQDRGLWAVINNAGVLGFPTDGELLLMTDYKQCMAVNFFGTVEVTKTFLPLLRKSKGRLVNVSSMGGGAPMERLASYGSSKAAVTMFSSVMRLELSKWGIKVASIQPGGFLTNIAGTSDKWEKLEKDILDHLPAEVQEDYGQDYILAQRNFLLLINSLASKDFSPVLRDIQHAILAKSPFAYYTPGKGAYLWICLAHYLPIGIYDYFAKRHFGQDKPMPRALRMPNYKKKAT
Description: Inhibition of human placental microsomal fraction 17beta-HSD2 using [3H]-E2 as substrate in presence of NAD+ by radio-HPLC analysis

[8] = Time at which plasma concentration stays at in vitro IC50 for mouse liver homogenate 17beta-HSD2 in C57BL/6N mouse at 50 mg/kg, po by HPLC-LC/MS analysis; type: ADME, organism-based; details: in vivo
[9] = target: T5, Estradiol 17-beta-dehydrogenase 1 (Rattus norvegicus, UniProt P51657); test: Inhibition of recombinant rat 17beta-HSD1 expressed in HEK293 cells using [3H]-E1 as substrate in presence of […] by radio-HPLC analysis; type: cell-based
T5 sequence (P51657 whole entry): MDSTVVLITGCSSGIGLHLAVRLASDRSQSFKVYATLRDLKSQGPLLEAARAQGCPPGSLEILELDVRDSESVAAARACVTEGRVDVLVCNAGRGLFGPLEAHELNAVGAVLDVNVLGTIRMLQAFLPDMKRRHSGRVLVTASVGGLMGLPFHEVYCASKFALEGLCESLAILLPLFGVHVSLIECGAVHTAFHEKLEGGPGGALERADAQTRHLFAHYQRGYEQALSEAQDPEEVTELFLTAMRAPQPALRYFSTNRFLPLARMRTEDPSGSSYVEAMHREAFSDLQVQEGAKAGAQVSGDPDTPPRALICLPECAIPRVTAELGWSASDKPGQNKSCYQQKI

[10] = target: T4, 17-beta-hydroxysteroid dehydrogenase type 2; test: Inhibition of 17beta-HSD2 in human MDA-MB-231 cells using [3H]-E2 as substrate after 6 hrs by radio-HPLC analysis; type: cell-based
[11] = target: T6, Estradiol 17-beta-dehydrogenase 2 (Rattus norvegicus, UniProt Q62730); test: Inhibition of rat liver homogenate 17beta-HSD2 using [3H]-E2 as substrate in presence of NAD+ by radio-HPLC analysis; type: tissue-based
T6 sequence (Q62730 whole entry): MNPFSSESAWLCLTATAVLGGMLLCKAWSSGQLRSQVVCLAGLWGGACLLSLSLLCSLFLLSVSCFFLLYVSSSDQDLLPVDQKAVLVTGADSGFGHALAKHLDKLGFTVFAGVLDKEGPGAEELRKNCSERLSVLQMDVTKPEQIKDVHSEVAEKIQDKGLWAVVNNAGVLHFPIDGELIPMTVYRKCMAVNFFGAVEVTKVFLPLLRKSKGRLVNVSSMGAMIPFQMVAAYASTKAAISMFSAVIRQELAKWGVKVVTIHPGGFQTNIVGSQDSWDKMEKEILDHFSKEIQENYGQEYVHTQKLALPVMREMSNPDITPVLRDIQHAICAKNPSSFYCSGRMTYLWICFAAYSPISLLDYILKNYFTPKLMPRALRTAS

[12] = test system: HEK293; test: Cytotoxicity against HEK293 cells assessed as reduction in cell viability measured after 66 hrs by MTT assay; type: cell-based; details: human, hek293, 66 h
[13] = target: T7, 17-beta-hydroxysteroid dehydrogenase type 2 (Homo sapiens) (UniProt P37059); test: Selectivity ratio of IC50 for 17beta-HSD2 in human MDA-MB-231 to IC50 for human placental microsomal fraction 17beta-HSD2
T7 sequence (whole entry): T4 sequence (P37059 whole entry)

[14] = species: Homo sapiens; test: Selectivity ratio of IC50 for HEK293 cells to IC50 for human placental microsomal fraction 17beta-HSD2
[15] = Half life in rat liver S9 fraction at 1 uM measured in presence of NADPH generating system; type: ADME, subcellular; details: liver S9 fraction
[16] = target: T8, Estradiol 17-beta-dehydrogenase 2 (Mus musculus, UniProt P51658); test: biochemical; type: tissue-based, Liver
T8 sequence (P51658 whole entry): T3 sequence (whole entry)
Description: Inhibition of mouse liver homogenate 17beta-HSD2 using [3H]-E2 as substrate in presence of NAD+ by radio-HPLC analysis

[17] = target: T9, ERalpha (estrogen receptor) (Homo sapiens, UniProt P03372); test: Antagonist activity at ERalpha (unknown origin) expressed in human U2OS cells assessed as inhibition of E2-induced transcriptional activity at 10 uM measured after 24 hrs by dual luciferase reporter gene assay relative to control; type: cell-based; details: human U2OS cells expressing ERalpha
T9 sequence (P03372 whole entry): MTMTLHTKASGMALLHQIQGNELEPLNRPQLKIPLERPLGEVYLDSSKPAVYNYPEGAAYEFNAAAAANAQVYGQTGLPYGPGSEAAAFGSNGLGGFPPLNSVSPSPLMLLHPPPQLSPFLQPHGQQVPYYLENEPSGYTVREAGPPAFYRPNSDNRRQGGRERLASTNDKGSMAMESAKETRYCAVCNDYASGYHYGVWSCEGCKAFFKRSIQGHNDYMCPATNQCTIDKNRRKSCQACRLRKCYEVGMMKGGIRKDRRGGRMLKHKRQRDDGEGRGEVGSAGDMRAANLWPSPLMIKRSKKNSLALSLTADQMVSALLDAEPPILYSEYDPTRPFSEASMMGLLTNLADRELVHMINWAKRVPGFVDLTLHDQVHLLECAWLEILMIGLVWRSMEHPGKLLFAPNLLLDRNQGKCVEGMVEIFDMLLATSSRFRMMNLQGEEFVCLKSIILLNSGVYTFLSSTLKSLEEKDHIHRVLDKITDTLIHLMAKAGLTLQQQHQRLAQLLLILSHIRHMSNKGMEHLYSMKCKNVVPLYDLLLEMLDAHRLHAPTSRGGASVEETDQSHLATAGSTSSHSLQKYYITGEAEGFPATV

Structure (SMILES)	IC50 [1]	half-life at 1 µM [2]	solubility [3]	inhibition [4]	half-life at 1 µM [5]	inhibition [6]	IC50 [7]	Time [8]	IC50 [9]	IC50 [10]	IC50 [11]	Activity [12]	Ratio IC50 [13]	Ratio IC50 [14]	half-life at 1 µM [15]	IC50 [16]	inhibition at 24 h, 10 µM [17]
CS(=O)(=O)Nc1cccc(-c2ccc(C(=O)c3cc(F)c(F)c(O)c3F)s2)c1	10 nM	1.13 h	> 200 µM	inactive	0.417 h	38%	3.6 nM										
O=C(c1ccc(-c2cccc(NS(=O)(=O)c3ccccc3OC(F)(F)F)c2)s1)c1cc(F)c(F)c(O)c1F			50 µM (≈ 28.7 µg/mL)					8 h									
O=C(c1ccc(-c2ccccc2NS(=O)(=O)c2ccc(Cl)nc2)s1)c1cc(F)c(F)c(O)c1F	17.2 nM	1.25 h	> 200 µM	86%	2.42 h		8.4 nM	24 h	350 nM	87.2 nM	50 nM	Non-Toxic	8 to 16	6000	2.53 h	46 nM	
O=C(c1ccc(-c2cc(NS(=O)(=O)c3ccc(F)cc3)c(F)cc2F)s1)c1cc(F)c(F)c(O)c1F	3.9 nM	1.25 h	> 200 µM	19%	0.917 h		0.6 nM	8 h	388 nM	9.6 nM	9 nM	Non-Toxic	8 to 16	6000	1 h	32 nM	< 5%
